Measurements: paper PMC4926143 (Toxins, 2016)
In brackets after ≈: the same amount, converted by molar mass. Entries after “also recorded” stand apart in the source; their conditions may differ. Like-named read-outs stand apart in the source and are kept apart here.

Columns and labels:
[1] = target: T1, bovine heart mitochondrial complex II (Bos taurus, UniProt P31039+P35720+Q3T189+Q95123); assay: MitoCheck Complex II Activity Assay (succinate dehydrogenase activity); assay type: biochemical; conditions: bovine heart mitochondria
T1 construct: bovine heart mitochondrial complex II; purchased Cayman Chemical; host or cells: bovine heart mitochondria (native tissue preparation supplied in the kit)
T1 sequence (P31039 44-665): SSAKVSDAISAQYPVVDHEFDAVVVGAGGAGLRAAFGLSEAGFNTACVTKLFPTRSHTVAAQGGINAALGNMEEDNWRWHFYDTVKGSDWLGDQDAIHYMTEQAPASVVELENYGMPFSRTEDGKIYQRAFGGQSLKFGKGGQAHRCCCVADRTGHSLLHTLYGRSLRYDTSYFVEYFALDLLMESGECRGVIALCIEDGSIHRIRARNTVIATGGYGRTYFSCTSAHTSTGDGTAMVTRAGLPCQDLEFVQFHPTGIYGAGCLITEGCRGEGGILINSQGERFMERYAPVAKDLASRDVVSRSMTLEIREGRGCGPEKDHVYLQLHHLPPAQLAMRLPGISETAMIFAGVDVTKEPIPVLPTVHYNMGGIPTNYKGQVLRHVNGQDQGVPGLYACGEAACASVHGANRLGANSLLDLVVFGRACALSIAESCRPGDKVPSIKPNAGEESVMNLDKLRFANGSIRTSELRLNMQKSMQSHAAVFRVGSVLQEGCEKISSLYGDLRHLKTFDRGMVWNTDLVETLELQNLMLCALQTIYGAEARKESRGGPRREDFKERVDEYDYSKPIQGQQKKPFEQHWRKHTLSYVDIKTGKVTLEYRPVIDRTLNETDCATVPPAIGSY
T1 sequence (Q3T189 29-280): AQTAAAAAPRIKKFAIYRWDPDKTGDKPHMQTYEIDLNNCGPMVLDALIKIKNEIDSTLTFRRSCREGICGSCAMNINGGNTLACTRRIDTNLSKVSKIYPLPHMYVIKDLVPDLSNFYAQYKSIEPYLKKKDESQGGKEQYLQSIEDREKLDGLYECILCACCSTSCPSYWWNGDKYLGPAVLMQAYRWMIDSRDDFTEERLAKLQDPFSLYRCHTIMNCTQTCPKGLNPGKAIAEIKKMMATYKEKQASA
T1 sequence (P35720 30-169): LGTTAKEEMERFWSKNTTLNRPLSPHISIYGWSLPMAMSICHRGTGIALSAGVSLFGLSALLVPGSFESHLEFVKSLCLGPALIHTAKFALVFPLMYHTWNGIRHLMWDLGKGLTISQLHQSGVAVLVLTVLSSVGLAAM
T1 sequence (Q95123 56-158): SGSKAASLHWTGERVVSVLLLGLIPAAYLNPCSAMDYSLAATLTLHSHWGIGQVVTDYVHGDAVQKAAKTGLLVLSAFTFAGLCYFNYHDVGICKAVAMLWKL

[2] = system: aflatoxin production; conditions: cited from earlier work
[3] = system: Aspergillus flavus IMF 47798; assay type: cell-based
[4] = system: aflR and pksA mRNA; assay: RT-qPCR of aflR and pksA mRNA levels in A. flavus; assay type: cell-based, Aspergillus flavus; conditions: 0.05 mM, normalized to β-tubulin mRNA
Method: To test the effects of three octyl esters on the mRNA levels of aflR and pksA, A. flavus was cultured with octyl syringate (8), octyl paraben (12), or octyl gallate (14) at the concentrations of 0.05 mM. Subsequently, aflR and pksA mRNA levels were examined by quantitative PCR.
The lyophilized mycelia were ground under liquid nitrogen using a mortar and pestle. Total RNA was extracted with TRIzol reagent (Thermo Fisher Scientific, Waltham, MA, USA) and purified with the PureLink RNA Mini Kit (Thermo Fisher Scientific), according to manufacturer’s protocol. The cDNA was prepared with the ReverTra Ace qPCR RT Master Mix (TOYOBO, Osaka, Japan), according to manufacturer’s protocol. The cDNA derived from 0.05 μg of total RNA was used as a qPCR template. qPCR was carried out using FastStart Universal SYBR Green Master (Rox) (Roche, Basel, Switzerland) in a final volume of 25 μL for each reaction and an ABI 7300 Real-Time PCR System (Thermo Fisher Scientific). Two-step PCR conditions were as follows: after an initial incubation at 95 °C for 10 min, 40 cycles of 95 °C for 15 s and 60 °C for 1 min were performed. The amount of aflR and pksA mRNA were normalized to the amount of β-tubulin mRNA (control gene) in each sample. PCR primers used for each gene were as follows: β-tubulin 5′-[…]-3′ and 5′-[…]-3′; AflR 5′-[…]-3′ and 5′-[…]-3′; pksA 5′-[…]-3′ and 5′-[…]-3′.

[5] = system: Aspergillus flavus IMF 47798; assay type: cell-based; remark: listed apart in the source
[6] = system: A. flavus ATCC 9170; set-up: method as in PMID 19232493; conditions: cited from earlier work
[7] = system: A. flavus; conditions: cited from earlier work
[8] = read-out: IC50, mitochondrial complex II

O=C(Nc1ccccc1-c1ccc(Cl)cc1)c1cccnc1Cl [boscalid]
IC50 [1, 8]: 19 µM | inhibition of aflatoxin production by complex II inhibitors [2]: inhibited aflatoxin production with selectivity | IC50 ([2]; read-out: IC50 of aflatoxin production inhibition): < 0.01 µM

CCCCCCCOC(=O)c1cc(OC)c(O)c(OC)c1 [compound 7, heptyl syringate]
inhibition of aflatoxin production [3]: inhibited aflatoxin production very strongly | IC50 [1, 8]: 1300 µM

CCCCCCCCOC(=O)c1ccc(O)cc1 [compound 12, octyl paraben]
aflR mRNA level [4]: None of the three octyl esters affected | pksA mRNA level [4]: None of the three octyl esters affected | aflatoxin production inhibitory activity (comparison in words) [3]: strong | effect on fungal growth [5]: did not affect fungal growth | IC50 [1, 8]: 160 µM

CCCCCCCCOC(=O)c1cc(OC)c(O)c(OC)c1 [compound 8, Octyl syringate]
aflR mRNA level [4]: None of the three octyl esters affected | pksA mRNA level [4]: None of the three octyl esters affected | inhibition of aflatoxin production [3]: inhibited aflatoxin production very strongly | fungal mycelial weight after five and six days of cultivation [5]: without changing | IC50 [1, 8]: 340 µM

CCOC(=O)c1cc(OC)c(O)c(OC)c1 [compound 2, Ethyl syringate]
inhibition of aflatoxin production [3]: did not inhibit aflatoxin production | IC50 ([1]; highest concentration 20 mM, read-out: IC50, mitochondrial complex II (symbol)): > 20000 µM

CCCCCCCCOC(=O)c1cc(O)c(O)c(O)c1 [compound 14, Octyl gallate]
aflR mRNA level [4]: None of the three octyl esters affected | pksA mRNA level [4]: None of the three octyl esters affected | minimum inhibitory concentration (MIC) [6]: 63 µM (≈ 17.8 µg/mL) | aflatoxin production inhibitory activity after five and six days of cultivation [3]: maintained | inhibition of aflatoxin production [3]: as strongly as octyl syringate (8) and octyl paraben (12); also recorded: strongly inhibited | effect on fungal growth [5]: did not affect fungal growth | effect on mycelial weight [5]: reduced the mycelial weight | IC50 [1, 8]: 290 µM

Cc1cc(O)c2c(c1)O[C@@]1(C)CC[C@H]3C(C)(C)CCC[C@]34CO[C@@H]2[C@H]41 [siccanin]
inhibition of aflatoxin production by complex II inhibitors [2]: inhibited aflatoxin production with selectivity

COc1[nH]c(=O)c(C(=O)[C@@H](C)C[C@H](C)[C@@H](Cl)CCl)c(O)c1OC [atpenin A5]
inhibition of aflatoxin production by complex II inhibitors [2]: inhibited aflatoxin production with selectivity

CCOC(=O)c1ccc(O)cc1 [compound 9, ethyl paraben]
aflatoxin production inhibitory activity (comparison in words) [3]: weak

CCCOC(=O)c1ccc(O)cc1 [compound 10, Propyl paraben]
inhibition of aflatoxin production on a solid culture [7]: inhibit aflatoxin production | aflatoxin production inhibitory activity (comparison in words) [3]: more strongly than propyl syringate (3) and propyl gallate (15); also recorded: much weaker than that of heptyl paraben (11) and octyl paraben (12) | IC50 [1, 8]: > 20000 µM

CCCCOC(=O)c1cc(OC)c(O)c(OC)c1 [compound 4, butyl syringate]
inhibition of aflatoxin production [3]: strong inhibitory activity | IC50 [1, 8]: 9700 µM

CCCOC(=O)c1cc(OC)c(O)c(OC)c1 [compound 3, propyl syringate]
inhibition of aflatoxin production [3]: did not inhibit aflatoxin production | IC50 [1, 8]: > 20000 µM

Cc1ccccc1C(=O)Nc1cccc(OC(C)C)c1 [mepronil]
inhibition of aflatoxin production by complex II inhibitors [2]: inhibited aflatoxin production with selectivity

CCCCCOC(=O)c1cc(OC)c(O)c(OC)c1 [compound 5, pentyl syringate]
inhibition of aflatoxin production [3]: inhibited aflatoxin production very strongly | IC50 [1, 8]: 2800 µM

CCCCCCCOC(=O)c1ccc(O)cc1 [compound 11, heptyl paraben]
aflatoxin production inhibitory activity after five and six days of cultivation [3]: maintained | inhibition of aflatoxin production [3]: strong | effect on fungal growth [5]: did not affect fungal growth

CCCCCCOC(=O)c1cc(OC)c(O)c(OC)c1 [compound 6, hexyl syringate]
inhibition of aflatoxin production [3]: inhibited aflatoxin production very strongly | IC50 [1, 8]: 1100 µM
